Laboratory results from PubChem BioAssay (NCI).
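Five concentrations, 48 hours, 96-well plates. Abbreviation: GI50, concentration required for 50% inhibition of growth. TGI denotes the concentration required for complete inhibition of growth.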

How the values were obtained:
Test in all cases: NCI tumour cell line growth inhibition, 48 h
786-0 renal = tested on: 786-0 renal
A498 renal = tested on: A498 renal
A549 NSCLC = tested on: A549 NSCLC
ACHN renal = tested on: ACHN renal
BT-549 breast = tested on: BT-549 breast
CAKI-1 renal = tested on: CAKI-1 renal
COLO 205 colon = tested on: COLO 205 colon
DU-145 prostate = tested on: DU-145 prostate
HCC-2998 colon = tested on: HCC-2998 colon
HCT-116 colon = tested on: HCT-116 colon
HCT-15 colon = tested on: HCT-15 colon
HL-60(TB) leukemia = tested on: HL-60(TB) leukemia
HOP-62 NSCLC = tested on: HOP-62 NSCLC
HOP-92 NSCLC = tested on: HOP-92 NSCLC
HS 578T breast = tested on: HS 578T breast
HT29 colon = tested on: HT29 colon
IGROV1 ovarian = tested on: IGROV1 ovarian
K-562 leukemia = tested on: K-562 leukemia
KM12 colon = tested on: KM12 colon
M14 melanoma = tested on: M14 melanoma
MALME-3M melanoma = tested on: MALME-3M melanoma
MCF7 breast = tested on: MCF7 breast
MDA-MB-231 breast = tested on: MDA-MB-231 breast
MDA-MB-435 = tested on: MDA-MB-435
NCI-H226 lung = tested on: NCI-H226 lung
NCI-H23 lung = tested on: NCI-H23 lung
NCI-H460 lung = tested on: NCI-H460 lung
NCI-H522 lung = tested on: NCI-H522 lung
NCI/ADR-RES ovarian = tested on: NCI/ADR-RES ovarian
OVCAR-3 ovarian = tested on: OVCAR-3 ovarian
OVCAR-4 ovarian = tested on: OVCAR-4 ovarian
OVCAR-5 ovarian = tested on: OVCAR-5 ovarian
PC-3 prostate = tested on: PC-3 prostate
RPMI-8226 leukemia = tested on: RPMI-8226 leukemia
RXF 393 renal = tested on: RXF 393 renal
SF-268 CNS = tested on: SF-268 CNS
SF-295 CNS = tested on: SF-295 CNS
SF-539 CNS = tested on: SF-539 CNS
SK-MEL-2 melanoma = tested on: SK-MEL-2 melanoma
SK-MEL-28 melanoma = tested on: SK-MEL-28 melanoma
SK-MEL-5 melanoma = tested on: SK-MEL-5 melanoma
SK-OV-3 ovarian = tested on: SK-OV-3 ovarian
SN12C renal = tested on: SN12C renal
SNB-19 CNS = tested on: SNB-19 CNS
SNB-75 CNS = tested on: SNB-75 CNS
SR leukemia = tested on: SR leukemia
SW-620 colon = tested on: SW-620 colon
T-47D breast = tested on: T-47D breast
TK-10 renal = tested on: TK-10 renal
U251 CNS = tested on: U251 CNS
UACC-257 melanoma = tested on: UACC-257 melanoma
UACC-62 melanoma = tested on: UACC-62 melanoma
UO-31 renal = tested on: UO-31 renal

CC(=O)Oc1cc(C(C)C)c(OCCN(C)C)cc1C
GI50 (786-0 renal): > 100 µM | TGI (786-0 renal): > 100 µM | GI50 (A498 renal): > 100 µM | TGI (A498 renal): > 100 µM | GI50 (A549 NSCLC): > 100 µM | TGI (A549 NSCLC): > 100 µM | GI50 (ACHN renal): > 100 µM | TGI (ACHN renal): > 100 µM | GI50 (BT-549 breast): > 100 µM | TGI (BT-549 breast): > 100 µM | GI50 (CAKI-1 renal): > 100 µM | TGI (CAKI-1 renal): > 100 µM | GI50 (COLO 205 colon): > 100 µM | TGI (COLO 205 colon): > 100 µM | GI50 (DU-145 prostate): > 100 µM | TGI (DU-145 prostate): > 100 µM | GI50 (HCC-2998 colon): > 100 µM | TGI (HCC-2998 colon): > 100 µM | GI50 (HCT-116 colon): > 100 µM | TGI (HCT-116 colon): > 100 µM | GI50 (HCT-15 colon): > 100 µM | TGI (HCT-15 colon): > 100 µM | GI50 (HL-60(TB) leukemia): > 100 µM | TGI (HL-60(TB) leukemia): > 100 µM | GI50 (HOP-62 NSCLC): > 100 µM | TGI (HOP-62 NSCLC): > 100 µM | GI50 (HOP-92 NSCLC): > 100 µM | TGI (HOP-92 NSCLC): > 100 µM | GI50 (HS 578T breast): > 100 µM | TGI (HS 578T breast): > 100 µM | GI50 (HT29 colon): > 100 µM | TGI (HT29 colon): > 100 µM | GI50 (IGROV1 ovarian): > 100 µM | TGI (IGROV1 ovarian): > 100 µM | GI50 (K-562 leukemia): > 100 µM | TGI (K-562 leukemia): > 100 µM | GI50 (KM12 colon): > 100 µM | TGI (KM12 colon): > 100 µM | GI50 (M14 melanoma): > 100 µM | TGI (M14 melanoma): > 100 µM | GI50 (MALME-3M melanoma): > 100 µM | TGI (MALME-3M melanoma): > 100 µM | GI50 (MCF7 breast): > 100 µM | TGI (MCF7 breast): > 100 µM | GI50 (MDA-MB-231 breast): > 100 µM | TGI (MDA-MB-231 breast): > 100 µM | GI50 (MDA-MB-435): > 100 µM | TGI (MDA-MB-435): > 100 µM | GI50 (NCI-H226 lung): > 100 µM | TGI (NCI-H226 lung): > 100 µM | GI50 (NCI-H23 lung): > 100 µM | TGI (NCI-H23 lung): > 100 µM | GI50 (NCI-H460 lung): > 100 µM | TGI (NCI-H460 lung): > 100 µM | GI50 (NCI-H522 lung): > 100 µM | TGI (NCI-H522 lung): > 100 µM | GI50 (NCI/ADR-RES ovarian): > 100 µM | TGI (NCI/ADR-RES ovarian): > 100 µM | GI50 (OVCAR-3 ovarian): > 100 µM | TGI (OVCAR-3 ovarian): > 100 µM | GI50 (OVCAR-4 ovarian): > 100 µM | TGI (OVCAR-4 ovarian): > 100 µM | GI50 (OVCAR-5 ovarian): > 100 µM | TGI (OVCAR-5 ovarian): > 100 µM | GI50 (PC-3 prostate): > 100 µM | TGI (PC-3 prostate): > 100 µM | GI50 (RPMI-8226 leukemia): > 100 µM | TGI (RPMI-8226 leukemia): > 100 µM | GI50 (RXF 393 renal): > 100 µM | TGI (RXF 393 renal): > 100 µM | GI50 (SF-268 CNS): > 100 µM | TGI (SF-268 CNS): > 100 µM | GI50 (SF-295 CNS): > 100 µM | TGI (SF-295 CNS): > 100 µM | GI50 (SF-539 CNS): > 100 µM | TGI (SF-539 CNS): > 100 µM | GI50 (SK-MEL-2 melanoma): > 100 µM | TGI (SK-MEL-2 melanoma): > 100 µM | GI50 (SK-MEL-28 melanoma): > 100 µM | TGI (SK-MEL-28 melanoma): > 100 µM | GI50 (SK-MEL-5 melanoma): > 100 µM | TGI (SK-MEL-5 melanoma): > 100 µM | GI50 (SK-OV-3 ovarian): > 100 µM | TGI (SK-OV-3 ovarian): > 100 µM | GI50 (SN12C renal): > 100 µM | TGI (SN12C renal): > 100 µM | GI50 (SNB-19 CNS): > 100 µM | TGI (SNB-19 CNS): > 100 µM | GI50 (SNB-75 CNS): 50.9 µM | TGI (SNB-75 CNS): > 100 µM | GI50 (SR leukemia): > 100 µM | TGI (SR leukemia): > 100 µM | GI50 (SW-620 colon): > 100 µM | TGI (SW-620 colon): > 100 µM | GI50 (T-47D breast): > 100 µM | TGI (T-47D breast): > 100 µM | GI50 (TK-10 renal): > 100 µM | TGI (TK-10 renal): > 100 µM | GI50 (U251 CNS): > 100 µM | TGI (U251 CNS): > 100 µM | GI50 (UACC-257 melanoma): > 100 µM | TGI (UACC-257 melanoma): > 100 µM | GI50 (UACC-62 melanoma): > 100 µM | TGI (UACC-62 melanoma): > 100 µM | GI50 (UO-31 renal): > 100 µM | TGI (UO-31 renal): > 100 µM
